pIC50, pKi: −log10 of the molar value.
Columns and labels:
[1] = test system: rat cerebral cortex neural cells; assay: Evaluation of neurite outgrowth-promoting activity in central neural cells; type: cell-based; conditions: cultured for 48 hours
[2] = test system: rat cerebral cortex neural cells; assay: as above; type: cell-based; conditions: 48 hours after addition, mean±standard error, control 18.0 ± 1.6
Method: The neurite outgrowth-promoting effects of the rat cerebral cortex neural cells on test substances were evaluated by the following method. The cerebral cortex neural cells were isolated from Wistar rats on the 18th day of pregnancy according to the method of Springer Neuroscience Lab Manual. That is to say, under ether anesthesia, a fetal rat was removed from the uterus of a pregnant rat on day 18, and transferred into a petri dish containing HBSS (manufactured by Gibco, Inc.) on ice. The cerebral cortex was cut out under a stereoscopic microscope. The cerebral cortex that had been cut out was dispersed with a neural cells dispersion solution (manufactured by Sumitomo Bakelite Co., Ltd.) to prepare rat cerebral cortex cells.
The resulting cerebral cortex cells were subjected to cell culture. Neurobasal medium (manufactured by Gibco, Inc.) supplemented with B27 Supplement (manufactured by Gibco, Inc.; Fin. 2% v/v), L-glutamine (manufactured by IBCO company; Fin. 0.5 mM) and GlutaMax I (manufactured by Gibco, Inc.; Fin. 0.5 mM) was used as the culture medium. The culture conditions were as follows: 5% CO2, 95% air, 100% humidity, and 37° C. The cells were inoculated to polylysine-coated 8-well slides (manufactured by IWAKI company) so as to have about 2×10^4 cells/well.
Compound [2], compound [3], compound [4], compound [5], compound [6], compound [7], compound [8], compound [9], compound [10], compound [11], and compound [12] (final•concentrations: 0.3 μM and 1.0 μM) were added as respective test substances to the culture solution at about 3 hours after the cell inoculation, and the culture solution with no additives was used as a control.
At 48 hours after the addition of the compounds, the cells were fixed by treatment with 4% paraformaldehyde (manufactured by Wako Pure Chemical Industries) at room temperature for about 30 minutes, and incubated with an anti-α-Tublin antibody (Anti-α-Tubulin Alexa Fluor 488 conjugate) recognizing a microtubule protein, at room temperature for one hour. After washing, the nucleus of the whole cell was stained with a nucleic acid-staining agent DAPI. The cells were observed under a fluorescence microscope at a magnification of 20 times. The stained cell image and the nuclear staining image in the same field of vision were imported into a computer as the image. Using an image analysis software (MethaMorph (registered trademark), Molecular Devises), the image imported into the computer was used to measure the “longest neurite length” that was the length of the longest neurite of individual cell in each field of vision. A cell having a length of the “longest neurite length” of 60 μm or more was defined as a “neurite forming cell” and the neurite forming activity was evaluated by the ratio of the “neurite forming cell” occupied in the number of the cells in the same field of vision. In other words, evaluation was performed by determining the rate of the neurite forming cells using the following equation:
Rate of neurite forming cells=[Number of neurite forming cells/Number of total cells in the same field of vision]×100

sigma receptor = molecular target: T1, sigma receptor (Cavia porcellus, UniProt Q60492); assay: Evaluation of affinity to sigma receptors ([3H](+)-pentazocine receptor binding, whole-brain membrane preparation); parameters: species or system guinea pig; conditions: for pKi: Ki from Dixon plot; for inhibition at 1 µM: compound concentration 1 × 10^−6 mol/L; for inhibition at 1 µM / inhibition at 0.1 µM / inhibition at 0.01 µM / inhibition at 0.001 µM / inhibition at 0.0001 µM / inhibition at 10 pM: [3H](+)-pentazocine, 25° C., 60 minutes, read-out: Inhibition rate (%); for inhibition at 0.1 µM: compound concentration 1 × 10^−7 mol/L; for inhibition at 0.01 µM: compound concentration 1 × 10^−8 mol/L; for inhibition at 0.001 µM: compound concentration 1 × 10^−9 mol/L; for inhibition at 0.0001 µM: compound concentration 1 × 10^−10 mol/L; for inhibition at 10 pM: compound concentration 1 × 10^−11 mol/L; for pIC50: from logit-log regression of the dose-response curve
T1 construct: A membrane preparation as a sigma receptor obtained from the whole brain of guinea pigs; from tissue; host or cells: guinea pig whole brain membrane preparation
Method: The following measurement of radioactivity was performed according to a usual method after the binding reaction had been carried out at 25° C. for 60 minutes.
The inhibition rate was determined by the equation of “100−binding rate”. The binding rate is represented by the following equation:
The IC50 of the test substance was calculated from a regression equation to the dose-response curve. That is to say, the ratio y=(B−N)/(B0−N) wherein a value of (B−N) is a specific binding radioactivity in the presence of a test substance, and a value of (B0−N) is a specific binding radioactivity in the absence of a test substance was first subjected to logit conversion and applied to a logit-log model plotted against the common logarithm of the test substance concentration to create a dose-response curve. […] The regression equation to the dose-response curve used is as follows: […]
Then, for each concentration of the positive substances, the reaction rate was measured while changing the concentration of the test substance in a range including the IC50 to create the Dixon plot, and the Ki value was calculated from the test substance concentration giving an intersection of these straight lines.

T1 sequence (Q60492 whole entry): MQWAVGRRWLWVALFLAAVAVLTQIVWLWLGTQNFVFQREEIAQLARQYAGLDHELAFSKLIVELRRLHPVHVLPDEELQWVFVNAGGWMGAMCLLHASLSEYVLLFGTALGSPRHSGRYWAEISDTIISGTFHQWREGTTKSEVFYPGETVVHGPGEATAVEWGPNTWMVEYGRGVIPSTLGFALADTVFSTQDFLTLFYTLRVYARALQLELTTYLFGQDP

| pKi (sigma receptor) | inhibition at 1 µM (sigma receptor) [%] | inhibition at 0.1 µM (sigma receptor) [%] | inhibition at 0.01 µM (sigma receptor) [%] | inhibition at 0.001 µM (sigma receptor) [%] | inhibition at 0.0001 µM (sigma receptor) [%] | inhibition at 10 pM (sigma receptor) [%] | pIC50 (sigma receptor) | SMILES | ratio of cells extending dendrites compared with no additives (FIG. 1) ([1]; final concentration 1 μM) | ratio of cells having neurites having the length two or more times the cell body diameter (FIG. 2) ([1]; final concentrations 0.1 μM, 1 μM, 10 μM) | Neurite outgrowth-promoting activity (%) (rate of neurite forming cells, longest neurite 60 μm or more) ([2]; 0.3 μM) | Neurite outgrowth-promoting activity (%) (rate of neurite forming cells, longest neurite 60 μm or more) ([2]; 1.0 μM) |
| --- | --- | --- | --- | --- | --- | --- | --- | --- | --- | --- | --- | --- |
| 9.00 |  |  |  |  |  |  |  | CCN(CCSc1ccccc1)C1CCCCC1 [Compound [2], N-(2-(phenylthio)ethyl)-N-ethylcyclohexylamine] | obviously higher than that of the case of no additives | significantly increased | 37.4 ± 3.5 | 50.6 ± 1.4 |
| 8.80 | 99.9 | 100 | 90.4 | 46.8 | 6.31 | 2.84 | 8.92 | c1ccc(SCCN2CCCC3CCCCC32)cc1 (stereo not shown) [Compound [3], N-(2-phenylthio)ethyldecahydroquinoline] |  |  | 32.8 ± 5.3 | 52.6 ± 1.2 |
| 9.10 | 100 | 100 | 99.7 | 95.2 | 23.5 | 10.4 | 9.72 | CCN(CCSc1cccc(C(F)(F)F)c1)C1CCCCC1 [Compound [4], N-[2-(3-trifluoromethyl)phenylthio]ethyl-N-ethylcyclohexylamine] |  |  | 21.4 ± 2.2 | 39.4 ± 2.5 |
|  | 97.5 | 99.2 | 98.6 | 92.8 | 20.8 | 1.25 | 9.65 | CCN(CCSc1cccc(C(F)F)c1)C1CCCCC1 [Compound [5], N-[2-(3-difluoromethyl)phenylthio]ethyl-N-ethylcyclohexylamine] |  |  | 41.6 ± 3.3 | 50.8 ± 2.8 |
| 8.43 | 99.9 | 99.1 | 98.1 | 86.6 | 19.9 | 1.75 | 9.57 | CCN(CCSc1ccc(OC)c(OC)c1)C1CCCCC1 [Compound [6], N-[2-(3,4-dimethoxy)phenylthio]ethyl-N-ethylcyclohexylamine] |  |  |  | 40.3 ± 3.4 |
| 9.10 | 97.3 | 96.3 | 90 | 44.5 | 3.43 | 0 | 8.91 | CCN(CCSc1ccc(F)cc1)C1CCCCC1 [Compound [7], N-[2-(4-fluorophenylthio)ethyl]-N-ethylcyclohexylamine] |  |  | 30.2 ± 2.5 | 53.3 ± 1.4 |
| 8.06 |  |  |  |  |  |  |  | CCN(CCCc1ccccc1)C1CCCCC1 [Compound [8], N-(3-phenylpropyl)-N-ethylcyclohexylamine] |  |  | 59.9 ± 1.8 | 61.7 ± 2.0 |
| 7.98 |  |  |  |  |  |  |  | CCN(CCCc1ccc(OC)cc1)C1CCCCC1 [Compound [9], N-[3-(4-methoxyphenyl)propyl]-N-ethylcyclohexylamine] |  |  | 31.4 ± 5.8 | 59.6 ± 1.0 |
| 8.07 |  |  |  |  |  |  |  | CCN(CCCc1ccc(F)cc1)C1CCCCC1 [Compound [10], N-[3-(4-fluorophenyl)propyl]-N-ethylcyclohexylamine] |  |  | 26.8 ± 1.1 | 57.0 ± 3.0 |
|  |  |  |  |  |  |  |  | COc1ccc(CCN2CCN(CCCc3ccccc3)CC2)cc1OC [Reference compound, SA4503, reference compound] |  |  | 44.6 ± 2.2 | 58.4 ± 1.8 |

| SMILES | pKi (sigma receptor) | inhibition at 1 µM (sigma receptor) [%] | inhibition at 0.1 µM (sigma receptor) [%] | inhibition at 0.01 µM (sigma receptor) [%] | inhibition at 0.001 µM (sigma receptor) [%] | inhibition at 0.0001 µM (sigma receptor) [%] | inhibition at 10 pM (sigma receptor) [%] | pIC50 (sigma receptor) | ratio of cells extending dendrites compared with no additives (FIG. 1) ([1]; final concentration 1 μM) | ratio of cells having neurites having the length two or more times the cell body diameter (FIG. 2) ([1]; final concentrations 0.1 μM, 1 μM, 10 μM) | Neurite outgrowth-promoting activity (%) (rate of neurite forming cells, longest neurite 60 μm or more) ([2]; 0.3 μM) | Neurite outgrowth-promoting activity (%) (rate of neurite forming cells, longest neurite 60 μm or more) ([2]; 1.0 μM) |
| --- | --- | --- | --- | --- | --- | --- | --- | --- | --- | --- | --- | --- |
| CCN(CCOc1ccc(F)cc1)C1CCCCC1 [Compound [11], N-ethyl-N-[2-(4-fluorophenoxy)ethyl]cyclohexylamine] | 8.62 |  |  |  |  |  |  |  |  |  | 43.5 ± 2.4 | 50.7 ± 2.2 |
| CCN(CCOc1ccccc1)C1CCCCC1 [Compound [12], N-ethyl-N-(2-phenoxyethyl)cyclohexylamine] | 8.18 |  |  |  |  |  |  |  |  |  | 44.2 ± 1.4 | 32.2 ± 1.0 |
